In experiment [1] the test system is Pseudomonas aeruginosa. Nature of the experiment: Antibacterial activity against Pseudomonas aeruginosa by broth microdilution assay. In kind it is functional. For orientation: In broth dilution the organism is exposed to a series of concentrations in liquid medium.
The subject of experiment [2] is Staphylococcus aureus. Nature of the experiment: Antibacterial activity against methicillin-resistant Staphylococcus aureus by broth microdilution assay. In kind it is functional.
In experiment [3] the test system is Staphylococcus aureus. The experiment can be described thus: Antibacterial activity against Staphylococcus aureus ATCC 25923 by broth microdilution assay. The experiment is classed as functional.
The test system of experiment [4] is Escherichia coli. The experiment can be described thus: Antibacterial activity against Escherichia coli ATCC 25922 by broth microdilution assay. In kind it is functional.
Another experiment relates to Enterococcus faecalis. The experiment can be described thus: Antibacterial activity against Enterococcus faecalis by broth microdilution assay. In kind it is functional.
For a further experiment, the system named is Acinetobacter baumannii. Nature of the experiment: Antibacterial activity against Acinetobacter baumannii by broth microdilution assay. The experiment is classed as functional.
Experiment [5] concerns Staphylococcus aureus. The experiment can be described thus: Antibacterial activity against Staphylococcus aureus by broth microdilution assay. In kind it is functional.
Experiment [6] concerns Staphylococcus aureus. Nature of the experiment: Antibacterial activity against Staphylococcus aureus ATCC 29213 by broth microdilution assay. The experiment is classed as functional.
The subject of experiment [7] is Pseudomonas aeruginosa. Nature of the experiment: Antibacterial activity against Pseudomonas aeruginosa ATCC 27853 by broth microdilution assay. In kind it is functional.
A further experiment has as its system Klebsiella pneumoniae. Nature of the experiment: Antibacterial activity against Klebsiella pneumonia by broth microdilution assay. The experiment is classed as functional.
In experiment [8] the test system is Escherichia coli. Nature of the experiment: Antibacterial activity against Escherichia coli by broth microdilution assay. In kind it is functional.
Experiment [9] concerns Calf thymus DNA. The experiment can be described thus: Binding affinity to calf thymus DNA assessed as reduction in fluorescence intensity of DNA-AO complex by AO dye based fluorescence analysis. To be noted: Bos taurus.
Experiment [10] has as its system Staphylococcus aureus. The experiment can be described thus: Antibacterial activity against methicillin-resistant Staphylococcus aureus assessed as metabolic inactivation by Alamar blue assay. In kind it is functional, organism-based. For orientation: The colour change of resazurin is a common sign of viable cells or microbes.
A further experiment has as its system Cell membrane. Nature of the experiment: Disruption of inner cell membrane in methicillin-resistant Staphylococcus aureus at 4 times of MIC measured within 14 mins by PI uptake assay. The experiment is classed as subcellular.
Experiment [11] relates to Calf thymus DNA. Nature of the experiment: Binding affinity to calf thymus DNA assessed as enhancement in maximum absorption of DNA upto 26.7 uM by UV-vis absorption spectroscopy. The experiment is classed as tissue-based. To be noted: Bos taurus, dose microM <=26.7.
For experiment [12], the system named is Calf thymus DNA. Nature of the experiment: Binding affinity to calf thymus DNA assessed as red shift in absorption spectra upto 26.7 uM by UV-vis absorption spectroscopy. In kind it is tissue-based. The following applies: Bos taurus, dose microM <=26.7.
For experiment [13], the system named is Staphylococcus aureus. Nature of the experiment: Potency index, ratio of MIC of norfloxacin to MIC of compound for antibacterial activity against methicillin-resistant Staphylococcus aureus by broth microdilution assay. The experiment is classed as functional.
The subject of experiment [14] is Staphylococcus aureus. Nature of the experiment: Antibacterial activity against methicillin-resistant Staphylococcus aureus assessed as reduction in bacterial growth measured after 16 passages. In kind it is functional, organism-based.

By MIC is commonly meant the lowest concentration found to suppress growth. Low values mean a more susceptible organism, high ones a less susceptible organism.

Values after ≈ are worked out from the molar mass of the structure shown. Active and inactive are the calls of the source. The calls are words filed in the database; no cut-off is given here.

On to `CC(=O)CSc1nnc(CS(=O)(=O)c2ccc(NC(C)=O)cc2)o1`, for which the MIC in the experiment on Pseudomonas aeruginosa [1] came to 64 µg/mL (≈ 173 µM); in the experiment with Staphylococcus aureus [2], 2 µg/mL (≈ 5.41 µM); with Staphylococcus aureus [3], 128 µg/mL (≈ 346 µM); in the experiment on Escherichia coli [4], 64 µg/mL (≈ 173 µM); with Enterococcus faecalis, 64 µg/mL (≈ 173 µM); against Acinetobacter baumannii, 64 µg/mL (≈ 173 µM). Also, the MIC against Staphylococcus aureus [5] worked out at 64 µg/mL (≈ 173 µM); against Staphylococcus aureus [6], 32 µg/mL (≈ 86.6 µM); against Pseudomonas aeruginosa [7], 128 µg/mL (≈ 346 µM); against Klebsiella pneumoniae, 16 µg/mL (≈ 43.3 µM); in the experiment with Escherichia coli [8], 16 µg/mL (≈ 43.3 µM).
Regarding `CC(=O)Nc1ccc(S(=O)(=O)Cc2nnc(SCC(=O)O)o2)cc1`, the MIC turned out to be 128 µg/mL (≈ 345 µM) against Pseudomonas aeruginosa [1]; 32 µg/mL (≈ 86.2 µM) in the experiment with Staphylococcus aureus [2]; 64 µg/mL (≈ 172 µM) against Staphylococcus aureus [3]; 128 µg/mL (≈ 345 µM) with Escherichia coli [4]; 64 µg/mL (≈ 172 µM) in the experiment on Enterococcus faecalis; 32 µg/mL (≈ 86.2 µM) against Acinetobacter baumannii. The MIC came out at 128 µg/mL (≈ 345 µM) in the experiment with Staphylococcus aureus [5]; 64 µg/mL (≈ 172 µM) against Staphylococcus aureus [6]; 128 µg/mL (≈ 345 µM) in the experiment on Pseudomonas aeruginosa [7]; 64 µg/mL (≈ 172 µM) against Klebsiella pneumoniae; 32 µg/mL (≈ 86.2 µM) in the experiment on Escherichia coli [8].
In the case of `CC(=O)Nc1ccc(S(=O)(=O)Cc2nnc(SCc3ccc(F)cc3F)o2)cc1`, the MIC came to 64 µg/mL (≈ 146 µM) in the experiment on Pseudomonas aeruginosa [1]; 16 µg/mL (≈ 36.4 µM) with Staphylococcus aureus [2]; 64 µg/mL (≈ 146 µM) with Staphylococcus aureus [3]; 128 µg/mL (≈ 291 µM) against Escherichia coli [4]; 128 µg/mL (≈ 291 µM) in the experiment with Enterococcus faecalis; 64 µg/mL (≈ 146 µM) in the experiment with Acinetobacter baumannii. In addition, the MIC was 64 µg/mL (≈ 146 µM) with Staphylococcus aureus [5]; 32 µg/mL (≈ 72.8 µM) in the experiment with Staphylococcus aureus [6]; 64 µg/mL (≈ 146 µM) against Pseudomonas aeruginosa [7]; 128 µg/mL (≈ 291 µM) in the experiment with Klebsiella pneumoniae; 8 µg/mL (≈ 18.2 µM) with Escherichia coli [8].
As for `C#CCSc1nnc(CS(=O)(=O)c2ccc(NC(C)=O)cc2)o1`, the MIC in the experiment with Pseudomonas aeruginosa [1] came to 64 µg/mL (≈ 182 µM); in the experiment on Staphylococcus aureus [2], 8 µg/mL (≈ 22.8 µM); against Staphylococcus aureus [3], 64 µg/mL (≈ 182 µM); in the experiment on Escherichia coli [4], 128 µg/mL (≈ 364 µM); against Enterococcus faecalis it was 128 µg/mL (≈ 364 µM); against Acinetobacter baumannii, 128 µg/mL (≈ 364 µM). Further, the MIC was found to be 64 µg/mL (≈ 182 µM) in the experiment on Staphylococcus aureus [5]; 32 µg/mL (≈ 91.1 µM) with Staphylococcus aureus [6]; 256 µg/mL (≈ 728 µM) in the experiment with Pseudomonas aeruginosa [7]; 256 µg/mL (≈ 728 µM) with Klebsiella pneumoniae; 128 µg/mL (≈ 364 µM) with Escherichia coli [8].
With `CC(=O)Nc1ccc(S(=O)(=O)Cc2nnc(SCC#N)o2)cc1`, the MIC in the experiment on Pseudomonas aeruginosa [1] was 256 µg/mL (≈ 726 µM); against Staphylococcus aureus [2] it was 256 µg/mL (≈ 726 µM); with Staphylococcus aureus [3] it was 256 µg/mL (≈ 726 µM); in the experiment on Escherichia coli [4], 256 µg/mL (≈ 726 µM); against Enterococcus faecalis, 256 µg/mL (≈ 726 µM); in the experiment on Acinetobacter baumannii it was 128 µg/mL (≈ 363 µM). Also, the MIC against Staphylococcus aureus [5] is 128 µg/mL (≈ 363 µM); against Staphylococcus aureus [6], 256 µg/mL (≈ 726 µM); in the experiment on Pseudomonas aeruginosa [7], 256 µg/mL (≈ 726 µM); in the experiment with Klebsiella pneumoniae, 256 µg/mL (≈ 726 µM); against Escherichia coli [8] it was 256 µg/mL (≈ 726 µM).
On to `CC(=O)Nc1ccc(S(=O)(=O)Cc2nnc(SCC3CC3)o2)cc1`, for which the MIC was 64 µg/mL (≈ 174 µM) against Pseudomonas aeruginosa [1]; 8 µg/mL (≈ 21.8 µM) against Staphylococcus aureus [2]; 64 µg/mL (≈ 174 µM) with Staphylococcus aureus [3]; 128 µg/mL (≈ 348 µM) against Escherichia coli [4]; 64 µg/mL (≈ 174 µM) against Enterococcus faecalis; 64 µg/mL (≈ 174 µM) with Acinetobacter baumannii. Moreover, the MIC with Staphylococcus aureus [5] was found to be 128 µg/mL (≈ 348 µM); in the experiment on Staphylococcus aureus [6], 64 µg/mL (≈ 174 µM); in the experiment on Pseudomonas aeruginosa [7], 64 µg/mL (≈ 174 µM); against Klebsiella pneumoniae, 128 µg/mL (≈ 348 µM); against Escherichia coli [8], 8 µg/mL (≈ 21.8 µM).
Turning to `CC(=O)Nc1ccc(S(=O)(=O)Cc2nnc(SCCO)o2)cc1`, the MIC against Pseudomonas aeruginosa [1] was 32 µg/mL (≈ 89.5 µM); against Staphylococcus aureus [2] it was 32 µg/mL (≈ 89.5 µM); in the experiment with Staphylococcus aureus [3] it was 32 µg/mL (≈ 89.5 µM); against Escherichia coli [4], 64 µg/mL (≈ 179 µM); in the experiment with Enterococcus faecalis it was 32 µg/mL (≈ 89.5 µM); against Acinetobacter baumannii it was 64 µg/mL (≈ 179 µM). Moreover, the MIC in the experiment on Staphylococcus aureus [5] came to 64 µg/mL (≈ 179 µM); against Staphylococcus aureus [6] it was 32 µg/mL (≈ 89.5 µM); with Pseudomonas aeruginosa [7], 128 µg/mL (≈ 358 µM); in the experiment on Klebsiella pneumoniae, 16 µg/mL (≈ 44.8 µM); against Escherichia coli [8], 32 µg/mL (≈ 89.5 µM).
For `CCCCCCSc1nnc(CS(=O)(=O)c2ccc(NC(C)=O)cc2)o1`, the MIC with Pseudomonas aeruginosa [1] amounted to 256 µg/mL (≈ 644 µM); against Staphylococcus aureus [2] it was 1 µg/mL (≈ 2.52 µM); against Staphylococcus aureus [3] it was 256 µg/mL (≈ 644 µM); against Escherichia coli [4], 128 µg/mL (≈ 322 µM); against Enterococcus faecalis, 128 µg/mL (≈ 322 µM); with Acinetobacter baumannii, 32 µg/mL (≈ 80.5 µM). Moreover, the MIC in the experiment on Staphylococcus aureus [5] worked out at 256 µg/mL (≈ 644 µM); with Staphylococcus aureus [6], 256 µg/mL (≈ 644 µM); with Pseudomonas aeruginosa [7], 256 µg/mL (≈ 644 µM); in the experiment with Klebsiella pneumoniae, 8 µg/mL (≈ 20.1 µM); against Escherichia coli [8], 256 µg/mL (≈ 644 µM). Besides, the outcome in the experiment with Calf thymus DNA [9], in the experiment on Staphylococcus aureus [10], with Cell membrane, in the experiment with Calf thymus DNA [11], in the experiment on Calf thymus DNA [12] and in the experiment with Staphylococcus aureus [14] was Active. Moreover, the Ratio in the experiment with Staphylococcus aureus [13] is listed as 16.
On to `CCCCCCCCCCCCSc1nnc(CS(=O)(=O)c2ccc(NC(C)=O)cc2)o1`, for which the MIC came to 256 µg/mL (≈ 531 µM) with Pseudomonas aeruginosa [1]; 128 µg/mL (≈ 266 µM) in the experiment with Staphylococcus aureus [2]; 256 µg/mL (≈ 531 µM) in the experiment with Staphylococcus aureus [3]; 256 µg/mL (≈ 531 µM) with Escherichia coli [4]; 128 µg/mL (≈ 266 µM) against Enterococcus faecalis; 256 µg/mL (≈ 531 µM) against Acinetobacter baumannii. The MIC against Staphylococcus aureus [5] was 256 µg/mL (≈ 531 µM); in the experiment with Staphylococcus aureus [6], 256 µg/mL (≈ 531 µM); in the experiment on Pseudomonas aeruginosa [7], 256 µg/mL (≈ 531 µM); against Klebsiella pneumoniae, 64 µg/mL (≈ 133 µM); against Escherichia coli [8], 256 µg/mL (≈ 531 µM).

The values are drawn from ChEMBL document CHEMBL4814033, “Unique para-aminobenzenesulfonyl oxadiazoles as novel structural potential membrane active antibacterial agents towards drug-resistant methicillin resistant Staphylococcus aureus” (2021).
